In one experiment the target is Cathepsin S (UniProt P25774). The experiment is described as follows: Cathepsin enzyme inhibition assay (fluorogenic peptide substrate Z-Val-Val-Arg-AMC), Cathepsin S. It is filed as biochemical, human and mouse. Conditions: enzyme 1 nM, substrate 20 μM, pH 6.5; read-out: CatS IC50. An outline of the steps:
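Human or mouse cathepsin S (1 nM) was run in 100 mM potassium phosphate pH 6.5 with 5 mM EDTA, 0.001% Triton X-100 and 5 mM DTT. The rise in AMC fluorescence from cleavage was measured, and IC50 values were calculated by standard methods and expressed in μM.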

The target in a further experiment is Cat L (UniProt P07711). The experiment is described as follows: Cathepsin enzyme inhibition assay (fluorogenic peptide substrate Z-Val-Val-Arg-AMC), Cathepsin L. It is filed as biochemical, human and mouse. Conditions: enzyme 1 nM, substrate 20 μM, pH 6.5; read-out: CatL IC50. An outline of the steps:
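Cathepsin L at 1 nM was mixed with compound, then started with 20 μM Z-Val-Val-Arg-AMC in pH 6.5 potassium phosphate with EDTA, Triton X-100 and 5 mM DTT. AMC fluorescence (ex 360/em 465 nm) was followed over 20 min. IC50 is given in μM.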

Counter-ions that a name gives are not always drawn.

Take `N#CCNC(=O)[C@@H]1C[C@@H](S(=O)(=O)c2ccccc2Cl)CN1C(=O)c1ccc(F)cc1` [Example 59, (2S,4R)-4-(2-Chloro-benzenesulfonyl)-1-(4-fluoro-benzoyl)-pyrrolidine-2-carboxylic acid cyanomethyl-amide]: the IC50 was determined as 1.8 nM on Cathepsin S and 12200 nM at Cat L.
Turning to `N#CC1(NC(=O)C2CC(S(=O)(=O)c3ccccc3C(F)(F)F)CN2c2cccc(C(F)(F)F)c2)CC1` (centres unmarked) [Example 354, 4-(2-Trifluoromethyl-benzenesulfonyl)-1-(3-trifluoromethyl-phenyl)-pyrrolidine-2-carboxylic Acid (1-cyano-cyclopropyl)-amide], the IC50 on Cathepsin S was 0.175 nM; on Cat L it was at least 25000 nM.
On to `N#CC1(NC(=O)[C@@H]2C[C@@H](S(=O)(=O)c3ccc(-n4ccnc4-c4ccccc4)cc3C(F)(F)F)CN2)CC1` [Example 25, (2S,4R)-4-[4-(2-Phenyl-imidazol-1-yl)-2-trifluoromethyl-benzenesulfonyl]-pyrrolidine-2-carboxylic acid (1-cyano-cyclopropyl)-amide hydrochloride], for which the figures for the IC50 on Cathepsin S and on Cat L were 2.3 nM and at least 25000 nM, respectively.
As to `N#CC1(NC(=O)[C@@H]2C[C@@H](S(=O)(=O)c3ccc(OCC(F)(F)F)cc3Cl)CN2C(=O)C(c2ccc(Cl)cc2)c2ccc(Cl)cc2)CC1` [Example 275, (2S,4R)-1-[2,2-Bis-(4-chloro-phenyl)-acetyl]-4-[2-chloro-4-(2,2,2-trifluoro-ethoxy)-benzenesulfonyl]-pyrrolidine-2-carboxylic acid (1-cyano-cyclopropyl)-amide], the IC50 on Cathepsin S was determined as 0.38 nM; at Cat L, 2680 nM.
For `Cc1cc(N2C[C@H](S(=O)(=O)c3ccc(F)cc3C(F)(F)F)C[C@H]2C(=O)NC2(C#N)CC2)n(-c2ccnc(Cl)c2)n1` [Example 266, (2S,4R)-1-[2-(2-Chloro-pyridin-4-yl)-5-methyl-2H-pyrazol-3-yl]-4-(4-fluoro-2-trifluoromethyl-benzenesulfonyl)-pyrrolidine-2-carboxylic acid (1-cyano-cyclopropyl)-amide], the IC50 was determined as 1.3 nM on Cathepsin S and 22100 nM on Cat L.
On to `N#CC1(NC(=O)[C@@H]2C[C@@H](S(=O)(=O)c3ccc(N4CCN(C5CC5)CC4)cc3Cl)CN2C(=O)C2(c3ccc(Cl)nc3)CC2)CC1` [Example 374, (2S,4R)-4-[2-Chloro-4-(4-cyclopropyl-piperazin-1-yl)-benzenesulfonyl]-1-[1-(6-chloro-pyridin-3-yl)-cyclopropanecarbonyl]-pyrrolidine-2-carboxylic acid (1-cyano-cyclopropyl)-amide; Compound with Formic Acid], for which the IC50 on Cathepsin S was found to be 0.07 nM; on Cat L, 50.3 nM.
On to `CC(C)(C)OC(=O)N1C[C@H](S(=O)(=O)c2ccccc2OC(F)(F)F)C[C@H]1C(=O)NC1(C#N)CC1` [Example 2, (2S,4R)-2-(1-Cyano-cyclopropylcarbamoyl)-4-(2-trifluoromethoxy-benzenesulfonyl)-pyrrolidine-1-carboxylic acid tert-butyl ester], for which the half-maximal inhibitory concentration (IC50) at Cathepsin S is 43.5 nM; on Cat L, at least 25000 nM.
For `Cc1cc(N2C[C@H](S(=O)(=O)c3ccc(F)cc3C(F)(F)F)C[C@H]2C(=O)NC2(C#N)CC2)n(C2CCOCC2)n1` [Example 396, (2S,4R)-4-(4-Fluoro-2-trifluoromethyl-benzenesulfonyl)-1-[5-methyl-2-(tetrahydro-pyran-4-yl)-2H-pyrazol-3-yl]-pyrrolidine-2-carboxylic acid (1-cyano-cyclopropyl)-amide], the IC50 on Cathepsin S is 1.65 nM; at Cat L it was 57500 nM.
For `N#CC1(NC(=O)[C@@H]2C[C@@H](S(=O)(=O)c3ccc(OCC(F)(F)F)cc3Cl)CN2C(=O)C2(c3ccc(C(F)(F)F)cc3)CC2)CC1` [Example 310, (2S,4R)-4-[2-Chloro-4-(2,2,2-trifluoro-ethoxy)-benzenesulfonyl]-1-[1-(4-trifluoromethyl-phenyl)-cyclopropanecarbonyl]-pyrrolidine-2-carboxylic acid (1-cyano-cyclopropyl)-amide] the same measures were 0.26 nM and 220 nM.
Regarding `CC(C)(C)OC(=O)N1C[C@H](S(=O)(=O)c2ccc(Cl)cc2OCC(F)(F)F)C[C@H]1C(=O)NC1(C#N)CC1` [Example 221, (2S,4R)-4-[4-Chloro-2-(2,2,2-trifluoro-ethoxy)-benzenesulfonyl]-2-(1-cyano-cyclopropylcarbamoyl)-pyrrolidine-1-carboxylic acid tert-butyl ester], the IC50 on Cathepsin S is 130 nM; at Cat L, at least 25000 nM.
With `CCN1CCN(c2ccc(S(=O)(=O)[C@@H]3C[C@@H](C(=O)NC4(C#N)CC4)N(C(=O)C4(C(F)(F)F)CC4)C3)c(Cl)c2)CC1` [Example 142, (2S,4R)-4-[2-Chloro-4-(4-ethyl-piperazin-1-yl)-benzenesulfonyl]-1-(1-trifluoromethyl-cyclopropanecarbonyl)-pyrrolidine-2-carboxylic acid (1-cyano-cyclopropyl)-amide formiate], the IC50 at Cathepsin S turned out to be 0.3 nM; on Cat L, 2480 nM.
On to `N#CCNC(=O)[C@@H]1C[C@@H](S(=O)(=O)c2ccccc2)CN1Cc1ccccc1` [Example 54, (2S,4R)-4-Benzenesulfonyl-1-benzyl-pyrrolidine-2-carboxylic acid cyanomethyl-amide], for which the IC50 is 210 nM at Cathepsin S and 5340 nM at Cat L.
Turning to `N#CC1(NC(=O)[C@@H]2C[C@@H](S(=O)(=O)c3ccc(OCC(F)(F)F)cc3C(F)(F)F)CN2C(=O)C2(CO)CC2)CC1` [Example 451, (2S,4R)-1-(1-Hydroxymethyl-cyclopropanecarbonyl)-4-[4-(2,2,2-trifluoro-ethoxy)-2-trifluoromethyl-benzenesulfonyl]-pyrrolidine-2-carboxylic acid (1-cyano-cyclopropyl)-amide], the IC50 stood at 0.758 nM on Cathepsin S and 6380 nM at Cat L.
The like results for `CC(C)(C)c1ccc(C2NC(C(=O)NC3(C#N)CC3)CC2S(=O)(=O)c2ccccc2)cc1` (centres unmarked) [Example 447, 4-Benzenesulfonyl-5-(4-tert-butyl-phenyl)-pyrrolidine-2-carboxylic acid (1-cyano-cyclopropyl)-amide] were, in that order, 6130 nM and at least 25000 nM.
As for `Cn1nc(N2C[C@H](S(=O)(=O)c3ccccc3C(F)(F)F)C[C@H]2C(=O)NC2(C#N)CC2)cc1C1CCOCC1` [Example 393, (2S,4R)-1-[1-Methyl-5-(tetrahydro-pyran-4-yl)-1H-pyrazol-3-yl]-4-(2-trifluoromethyl-benzenesulfonyl)-pyrrolidine-2-carboxylic acid (1-cyano-cyclopropyl)-amide], the IC50 on Cathepsin S was 3.75 nM; on Cat L, at least 25000 nM.
Regarding `N#CC1(NC(=O)[C@@H]2C[C@@H](S(=O)(=O)c3ccc(OCC(F)(F)F)cc3Cl)CN2C(=O)C2(c3ccc(F)cc3)CC2)CC1` [Example 295, (2S,4R)-4-[2-Chloro-4-(2,2,2-trifluoro-ethoxy)-benzenesulfonyl]-1-[1-(4-fluoro-phenyl)-cyclopropanecarbonyl]-pyrrolidine-2-carboxylic acid (1-cyano-cyclopropyl)-amide], the IC50 at Cathepsin S was 0.03 nM; at Cat L, 925 nM.
Turning to `N#CC1(NC(=O)[C@@H]2C[C@@H](S(=O)(=O)c3ccccc3C(F)(F)F)CN2C(=O)c2ccc(F)cc2)CC1` [Example 106, (2S,4R)-1-(4-Fluoro-benzoyl)-4-(2-trifluoromethyl-benzenesulfonyl)-pyrrolidine-2-carboxylic Acid (1-cyano-cyclopropyl)-amide], the IC50 at Cathepsin S is 0.4 nM; at Cat L, at least 25000 nM.
For the compound `COc1cccc(-n2nc(C)cc2N2C[C@H](S(=O)(=O)c3ccccc3C(F)(F)F)C[C@@H]2C(=O)NC2(C#N)CC2)c1` [Example 334, (2R,4R)-1-[2-(3-Methoxy-phenyl)-5-methyl-2H-pyrazol-3-yl]-4-(2-trifluoromethyl-benzenesulfonyl)-pyrrolidine-2-carboxylic acid (1-cyano-cyclopropyl)-amide], the figures for the IC50 at Cathepsin S and on Cat L were 780 nM and at least 25000 nM, respectively.
Take `CCC(=O)N1C[C@H](S(=O)(=O)c2ccccc2Cl)C[C@H]1C(=O)NCC#N` [Example 61, (2S,4R)-4-(2-Chloro-benzenesulfonyl)-1-propionyl-pyrrolidine-2-carboxylic acid cyanomethyl-amide]: the results for the IC50 on Cathepsin S and at Cat L were 1.2 nM and 22500 nM, respectively.
The like results for `N#CC1(NC(=O)[C@@H]2C[C@@H](S(=O)(=O)c3ccccc3Cl)CN2C=O)CC1` [Example 78, (2S,4R)-4-(2-Chloro-benzenesulfonyl)-1-formyl-pyrrolidine-2-carboxylic acid (1-cyano-cyclopropyl)-amide] were, in that order, 18.5 nM and at least 25000 nM.
The like results for `N#CC1(NC(=O)[C@@H]2C[C@@H](S(=O)(=O)c3ccc(N4CCC(F)(F)CC4)cc3Cl)CN2C(=O)C2(C(F)(F)F)CC2)CC1` [Example 157, (2S,4R)-4-[2-Chloro-4-(4,4-difluoro-piperidin-1-yl)-benzenesulfonyl]-1-(1-trifluoromethyl-cyclopropanecarbonyl)-pyrrolidine-2-carboxylic acid (1-cyano-cyclopropyl)-amide] were, in that order, 0.4 nM and 4410 nM.
With `N#CC1(NC(=O)[C@@H]2C[C@@H](S(=O)(=O)c3ccccc3Cl)CN2S(=O)(=O)c2ccc3ccccc3c2)CC1` [Example 313, (2S,4R)-4-(2-Chloro-benzenesulfonyl)-1-(naphthalene-2-sulfonyl)-pyrrolidine-2-carboxylic Acid (1-cyano-cyclopropyl)-amide], the half-maximal inhibitory concentration (IC50) at Cathepsin S is 0.46 nM; on Cat L it was 1390 nM.

By IC50 is commonly meant the concentration that inhibits the measured activity by half.

For the origin of these results see patent US8163793B2, “Proline derivatives” (Hoffman-La Roche Inc., priority 2009, dated 2012).
